Test results from paper PMC11940309, “Endocrine-Disrupting Activities of Flavones on Steroid Receptors: Structural Requirements and Synthesis of Novel Flavone with Improved Estrogenic Activity” (Biomedicines, 2025).
“And” between values parts separate entries of the source, which are not always exact repeats. Equal values may be shown once. Read-outs that look alike come from different tables or passages of the source.

Key:
estrogen receptor (ER) = experiment: ER-mediated luciferase reporter induction in T47D KBluc cells; format: cell-based, human; details: for % ER Induction: relative to 1nM estradiol
Protocol: Experiments testing the effect of flavonoids on estrogen receptor-mediated transcription employed T47D KBluc cells. These cells were maintained in RPMI medium with 10% FBS, penicillin (100 U/mL), and streptomycin (100 μg/mL). For reporter gene experiments, cells were detached as above and replated at 50% confluency in phenol red-free RPMI media with 10% charcoal-stripped FBS and antibiotics (day one). All subsequent steps used phenol red-free medium and trypsin. On day three, the medium was replaced with fresh medium. On day five, cells were washed with PBSE, detached, resuspended, diluted, and replated in the phenol red-free RPMI with charcoal-stripped serum (50,000 cells per well as above).
(§1) For all cell lines, cell harvesting and the luminescence assay for alkaline phosphatase and/or luciferase were performed as previously described in detail. Each condition was performed in quadruplicate. […] Percent inhibition is 100 minus the percent induction.

human AR = biological target: T1, human AR (Homo sapiens, UniProt P10275); experiment: AR-mediated induction of PSA-luciferase reporter by R1881 in HeLa13 cells; format: cell-based; details: for inhibition at 1 µM / inhibition at 4 µM: read-out: % Inhibition of AR-Mediated Gene Induction
T1 construct: expressed in transfected cells; host or cells: HeLa13 (HeLa 13)
T1 sequence (P10275 1-920): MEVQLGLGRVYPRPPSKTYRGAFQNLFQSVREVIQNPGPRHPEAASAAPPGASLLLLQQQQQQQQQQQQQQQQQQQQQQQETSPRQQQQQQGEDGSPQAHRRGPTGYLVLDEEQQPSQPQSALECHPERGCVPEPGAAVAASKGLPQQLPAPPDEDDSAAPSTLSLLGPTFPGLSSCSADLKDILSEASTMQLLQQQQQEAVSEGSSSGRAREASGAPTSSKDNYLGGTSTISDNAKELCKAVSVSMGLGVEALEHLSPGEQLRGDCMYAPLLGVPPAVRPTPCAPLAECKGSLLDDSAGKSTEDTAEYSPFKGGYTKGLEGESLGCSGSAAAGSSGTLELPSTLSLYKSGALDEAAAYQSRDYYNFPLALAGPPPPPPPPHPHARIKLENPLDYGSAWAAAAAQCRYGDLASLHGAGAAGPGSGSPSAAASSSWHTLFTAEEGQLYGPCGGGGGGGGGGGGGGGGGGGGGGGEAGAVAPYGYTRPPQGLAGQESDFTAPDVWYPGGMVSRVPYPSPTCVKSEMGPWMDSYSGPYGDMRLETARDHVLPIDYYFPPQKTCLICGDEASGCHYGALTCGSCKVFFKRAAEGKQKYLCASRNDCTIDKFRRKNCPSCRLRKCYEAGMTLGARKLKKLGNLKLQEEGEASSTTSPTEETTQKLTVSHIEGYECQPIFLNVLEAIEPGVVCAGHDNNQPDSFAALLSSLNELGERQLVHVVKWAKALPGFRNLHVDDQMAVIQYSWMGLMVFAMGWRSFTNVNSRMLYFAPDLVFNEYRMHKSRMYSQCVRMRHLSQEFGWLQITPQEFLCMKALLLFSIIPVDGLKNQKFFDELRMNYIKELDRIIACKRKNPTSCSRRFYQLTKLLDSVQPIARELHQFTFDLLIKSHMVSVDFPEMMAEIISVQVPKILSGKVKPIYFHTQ
Text: (§2) The engineered T47D breast cancer cell lines employed for the assessment of flavonoid activity on glucocorticoid receptor (GR) and progesterone receptor (PR) signaling permitted the facile quantitation transcription of both an endogenous gene and a stably integrated reporter gene. […] The T47D K5pLuc cell line responds to progestins via induction of a stably integrated cytokeratin 5-luciferase reporter gene. […] For assessment of the effect of the test compounds on androgen receptor (AR) signaling, we used the HeLa13 cell line engineered to stably express human AR and a PSA-luciferase reporter gene containing a 4× multimerized PSA upstream enhancer ARE1 linked to the E4 TATA box and luciferase gene.
Experiments testing the effect of flavonoid on androgen receptor-mediated transcription employed HeLa 13 cells maintained in MEM medium supplemented with 10% FBS, 0.5 mg/mL G418, 0.05 mg/mL Hygromycin B, […], and streptomycin (100 μg/mL). For reporter gene experiments, cells were replated at a 1:5 dilution in MEM medium with 5% charcoal-stripped FBS and the antibiotics mentioned above. The medium was changed the next day. After 48 h, the cells were washed with PBSE, detached with phenol red-free trypsin, pelleted, resuspended and plated in 96 well plates as above. Hormone and flavonoid treatments were performed as described above with the HeLa 13 medium and charcoal-stripped FBS. When treated with hormone, the synthetic androgen, R1881, was used at 1.0 nM. Hormone treatment was for 20 h at which time cells were harvested for assay of luciferase.
as §1

[1] = biological target: T2, progesterone receptor (PR) (Homo sapiens, UniProt P06401); experiment: PR-mediated induction of transcription by R5020 in T47D K5pLuc cells (luciferase reporter and endogenous alkaline phosphatase); format: cell-based; details: T47D, R5020 1.0 nM
T2 sequence (P06401 679-933 limits assumed): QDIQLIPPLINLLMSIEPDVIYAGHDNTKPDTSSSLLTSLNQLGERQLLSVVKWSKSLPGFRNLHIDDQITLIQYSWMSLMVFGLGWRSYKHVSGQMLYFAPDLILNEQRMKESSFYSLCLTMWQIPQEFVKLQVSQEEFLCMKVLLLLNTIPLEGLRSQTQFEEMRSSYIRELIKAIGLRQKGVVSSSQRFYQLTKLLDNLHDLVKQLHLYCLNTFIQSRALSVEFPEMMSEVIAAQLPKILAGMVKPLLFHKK
Text: as §2
Experiments testing the effect of flavonoids on progesterone receptor-mediated transcription employed T47D K5pluc cells. The protocol was the same as that for T47D (A1-2) cells except the medium was Dulbecco’s Modified Eagle’s Medium supplemented with 10% FBS, insulin (10 nM), puromycin 200 ng/mL, nonessential amino acids, penicillin (100 U/mL), and streptomycin (100 μg/mL). When treated with hormone, the synthetic progestin, R5020, was used at 1.0 nM. Hormone treatment was for 20 h at which time cells were harvested for assay of alkaline phosphatase and luciferase.
as §1

[2] = biological target: T3, glucocorticoid receptor (GR) (Rattus norvegicus, UniProt P06536); experiment: GR-mediated induction of transcription by dexamethasone in T47D (A1-2) cells (luciferase reporter and endogenous alkaline phosphatase); format: cell-based, human; details: T47D, dexamethasone 1.0 nM, read-out: % Inhibition of GR Induction
T3 construct: host or cells: T47D (A1-2)
T3 sequence (P06536 1-795): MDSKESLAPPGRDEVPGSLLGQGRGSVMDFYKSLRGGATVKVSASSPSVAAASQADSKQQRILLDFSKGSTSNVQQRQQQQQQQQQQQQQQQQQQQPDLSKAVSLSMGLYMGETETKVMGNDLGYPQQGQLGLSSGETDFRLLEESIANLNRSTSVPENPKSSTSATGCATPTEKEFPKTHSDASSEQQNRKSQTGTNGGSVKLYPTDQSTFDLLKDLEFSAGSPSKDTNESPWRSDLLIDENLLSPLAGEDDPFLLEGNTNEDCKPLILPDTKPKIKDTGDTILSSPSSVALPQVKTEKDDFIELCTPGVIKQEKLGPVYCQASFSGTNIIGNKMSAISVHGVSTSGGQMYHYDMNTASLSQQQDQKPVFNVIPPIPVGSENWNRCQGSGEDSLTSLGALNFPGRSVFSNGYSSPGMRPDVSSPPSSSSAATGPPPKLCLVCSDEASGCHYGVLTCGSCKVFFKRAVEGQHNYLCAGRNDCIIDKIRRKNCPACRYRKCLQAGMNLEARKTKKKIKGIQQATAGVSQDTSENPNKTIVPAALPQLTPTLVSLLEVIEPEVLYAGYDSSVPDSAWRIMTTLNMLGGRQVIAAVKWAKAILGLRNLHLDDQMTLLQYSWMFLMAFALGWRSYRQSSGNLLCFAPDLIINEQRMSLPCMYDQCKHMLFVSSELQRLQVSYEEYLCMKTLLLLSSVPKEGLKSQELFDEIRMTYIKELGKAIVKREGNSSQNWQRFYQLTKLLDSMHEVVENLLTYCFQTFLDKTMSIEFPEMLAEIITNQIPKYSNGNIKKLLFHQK
Text: as §2
For assessment of the effect of flavones on glucocorticoid receptors, T47D (A1-2) cells were maintained in Minimal Essential Medium, 10% Fetal Bovine Serum (FBS), 0.2 mg/mL G418, penicillin (100 U/mL), and streptomycin (100 μg/mL). For experiments, medium was removed, and cultures rinsed with Phosphate-Buffered Saline (PBS) + 1.0 mM EDTA (PBSE), detached with trypsin, pelleted, and resuspended in medium to a concentration of 500,000 cells/mL. Aliquots of cell suspension, 100 microliters/well, were transferred into a 96-well, white, flat-bottomed plate and allowed to attach for 24 h. The following day, each well was treated with a 50 microliter aliquot of a test compound diluted in medium. Controls received medium containing DMSO diluted in the same way. For hormone treatment, dexamethasone was diluted in medium and added as 50 microliter aliquots so that the final volume in each well was 200 microliters. The final concentration of dexamethasone was 1.0 nM. Controls received medium without hormone. Hormone treatment was for 20 h at which time cells were harvested for assay of alkaline phosphatase and luciferase.
as §1

| SMILES | % ER Induction (estrogen receptor (ER); 1 µM) | % ER Induction (estrogen receptor (ER); 4 µM) | inhibition at 1 µM (human AR; 1 µM, R1881 1.0 nM) | inhibition at 4 µM (human AR; 4 µM, R1881 1.0 nM) | further results |
| --- | --- | --- | --- | --- | --- |
| O=c1c(O)c(-c2ccc(O)cc2)oc2ccccc12 [3,4′-dihydroxyflavone] | 13% | 125% | 3% | 27% | – |
| O=c1c(O)c(-c2ccc(O)c(O)c2)oc2cc(O)cc(O)c12 [3,5,7,3′,4′-pentahydroxyflavone] | 3% | 12% | – | – | inhibition at 4 µM ([1]; AP (alkaline phosphatase)): 52%; inhibition at 4 µM ([1]; LUC (luciferase)): 47%; inhibition at 8 µM ([1]; AP (alkaline phosphatase)): 79%; inhibition at 8 µM ([1]; LUC (luciferase)): 78% |
| O=c1c(O)c(-c2ccccc2)oc2ccc(O)cc12 [3,6-dihydroxyflavone] | 55% | 94% | 35% | 52% | – |
| O=c1c(O)c(-c2ccc(O)cc2)oc2cc(O)ccc12 [3,7,4′-trihydroxyflavone] | 86% | 114% | -6% | 39% | – |
| COc1ccc(-c2oc3ccc(OC)cc3c(=O)c2O)cc1 [3-hydroxy, 6,4′-dimethoxyflavone] | 2% | 3% | -17% | 41% | – |
| O=C1CC(c2ccc(O)cc2)Oc2ccccc21 (stereo not shown) [4′-hydroxyflavanone] | 12% | 109% | – | – | inhibition at 1 µM (human AR): -8%; inhibition at 4 µM (human AR): 0% |
| COc1ccc(-c2cc(=O)c3c(OC)cccc3o2)cc1 [5,4′-methoxyflavone] | 1% | 31% | – | – | % Inhibition of AR-Mediated Gene Induction (human AR; 1 µM, R1881 1.0 nM): 4%; % Inhibition of AR-Mediated Gene Induction (human AR; 4 µM, R1881 1.0 nM): 53% |
| O=c1cc(-c2ccc(O)cc2)oc2cc(O)cc(O)c12 [5,7,4′-trihydroxyflavone] | – | – | – | – | inhibition at 4 µM ([2]; AP (alkaline phosphatase)): -19%; inhibition at 4 µM ([2]; LUC (luciferase)): 6%; inhibition at 8 µM ([2]; AP (alkaline phosphatase)): 49%; inhibition at 8 µM ([2]; LUC (luciferase)): 35% |
| O=c1cc(-c2ccccc2)oc2cccc(O)c12 [5-hydroxyflavone] | 0% | 4% | – | – | inhibition at 4 µM ([1]; AP (alkaline phosphatase)): 26%; inhibition at 4 µM ([1]; LUC (luciferase)): -23%; inhibition at 8 µM ([1]; AP (alkaline phosphatase)): 61%; inhibition at 8 µM ([1]; LUC (luciferase)): 45%; inhibition at 4 µM ([2]; AP (alkaline phosphatase)): 38%; inhibition at 4 µM ([2]; LUC (luciferase)): -9%; inhibition at 8 µM ([2]; AP (alkaline phosphatase)): 12%; inhibition at 8 µM ([2]; LUC (luciferase)): -30% |
| COc1cccc2oc(-c3ccc(O)cc3)cc(=O)c12 [5-methoxy,4′-hydroxyflavone] | −2% | 10% | -4% | 34% | – |
| COc1ccc(-c2cc(=O)c3cc(O)ccc3o2)cc1 [6-hydroxy,4′-methoxyflavone] | 63% | 131% | 32% | 39% | – |
| O=C1CC(c2ccccc2)Oc2ccc(O)cc21 (stereo not shown) [6-hydroxyflavanone] | 15% | 111% | -8% | 22% | – |
| C[C@]12CC[C@@H]3c4ccc(O)cc4CC[C@H]3[C@@H]1CC[C@@H]2O [17β-estradiol] | – | – | – | – | potency relative to the 6,4′-dihydroxyflavones (estrogen receptor (ER); in the assays used here): over 1000 fold |
| Cc1c(-c2ccc(O)cc2)oc2ccc(O)cc2c1=O [compound 8, 3-methyl 6,4′-dihydroxyflavone] | – | – | – | – | increase of EC50 relative to 6,4′-dihydroxyflavone (estrogen receptor (ER)): ten-fold or more; reporter gene activity compared with an optimal dose of estradiol (estrogen receptor (ER); 1.0 micromolar): super-inducer |
| O=c1c(F)c(-c2ccc(O)cc2)oc2ccc(O)cc12 [compound 14, 3-fluoro, 6,4′-dihydroxyflavone] | – | – | – | – | EC50 compared to that of genistein (estrogen receptor (ER)): comparable; EC50 (estrogen receptor (ER); read-out: EC50, estrogen agonist): ~0.03 µM and 0.03 to 0.1 µM |
